According to patent publication US9468209B2, “Method for eradicating weeds with derivatives of 3-acetyl-5-sec-butyl-4-hydroxy-3-pyrrolin-2-one” (priority 2012, dated 2016):

What was measured:
Crofton weed = assay: Needle puncture pathogenic test on slightly wounded leaf of Crofton weed; format: in vivo; settings: for Avg. diameter of the spot after 24 h / Time of disease spot to occur / Time of Disease spot / Average diameter of spot after 24 h: Crofton weed leaf; for Avg. diameter of the spot after 24 h / Time of disease spot to occur: analogs with formula (I) and (II); for Time of Disease spot / Average diameter of spot after 24 h / Time / Average diameter of the damage spot after 24 h: 50 μg/mL, 25° C., natural light; for Time / Average diameter of the damage spot after 24 h: salts, Crofton weed
Method: 3-acetyl-5-sec-butyl-4-hydroxy-3-pyrrolin-2-one analogs were dissolved in a small amount of methanol and diluted with water to a concentration of 5-100 μg/g. A pathogenic test was conducted by placing the toxic liquid on the slightly wounded leaf of Crofton weed with a needle. The test has shown that the pathogenic capability of 3-acetyl-5-sec-butyl-4-hydroxy-3-pyrrolin-2-one analogs with respect to Crofton weed increases with the increase of concentration. The spot diameter caused on the leaf of Crofton weed after 24 hours was 2 mm at 50 μg/g.
3-acetyl-5-sec-butyl-4-hydroxy-3-pyrrolin-2-one analogue (Table 3, compounds 10-57) was dissolved in small amount of methanol. The solution was then diluted with distilled water to a concentration of 50 μg/mL. Methanol solution with same concentration and pure distilled water were used as control of the experiment. A pathogenic test was conducted by placing the toxic liquid on the slightly wounded leaf of Crofton weed with a needle. The experiment was carried out at 25° C. under the natural light and each test was repeated 6 times. It was measure the diameter of the spot after 24 h. […] The size of the side chain also has an effect on their activity.
Fourteen salts of 3-acetyl-5-sec-butyl-4-hydroxy-3-pyrrolin-2-one analogs were dissolved in small amount of methanol and diluted with distilled water to a concentration of 50 μg/mL. Methanol/water mixture was also prepared and used as control. Needle puncture method was used for the test on the small pieces of Crofton weed. Each treatment was repeated six times or more. The test samples were kept under natural light at 25° C. for 24 hours. The diameters of damaged spot of the plant leaves were measured by vernier caliper.

photosystem II = assay: PSII oxygen evolution / electron transfer activity of treated Crofton weed leaves; format: biochemical; settings: 50 μg/mL, strong light 12 hours
Method: (§1) Compounds 10-57 were dissolved in small amount of methanol. The solutions were then diluted with distilled water to a concentration of 50 μg/mL. A mixture of methanol and water in the same ratio as the sample solution was also prepared and used as control in the experiment. The healthy leaves of Crofton weed were washed in water for 30 minutes and then rinsed with distilled water. The clean and tissue dried leaves were placed in petri dish with the back-side of the leaves facing up. Wet filter paper was also placed in the in petri dish for moisture control. Water, methanol and chemical solutions of the analogues were applied to the back-side of each leaf. Test sample was then placed in vacuum chamber at 25° C. for 15 min followed by exposure to the strong light (400 μM m^−2 s^−1) for 12 hours. The leaf sample went through a series of test, and the Hill reaction rate, the electron transfer activity and fluorescence of chlorophyll were measured. Four leaves were used for each treatment and each test was repeated three times.

[1] = system: fluorescence of chlorophyll; assay: Fluorescence of chlorophyll of treated Crofton weed leaves; format: biochemical; settings: 50 μg/mL, strong light 12 hours
Method: as §1

Hill reaction = Hill reaction activity of treated Crofton weed leaves; format: biochemical; settings: 50 μg/mL, strong light 12 hours
Method: as §1

Row | Compound | PSII Activity of oxygen evolution (photosystem II) | Fv/Fm [1] | Activity of Hill Reaction (Hill reaction) | Time of Disease spot (Crofton weed) | Average diameter of spot after 24 h (Crofton weed) | Time (Crofton weed) | Average diameter of the damage spot after 24 h (Crofton weed) | other results
1 | CCC1=C(O)C(C(C)CC)NC1=O (centres unmarked) [Compound 4] | 28.01 uMO2/mgChlh | 0.83 | 51.13 uMO2/mgChlh | – | – | – | – | Avg. diameter of the spot after 24 h (Crofton weed): 2.97 ± 0.01 mm; Time of disease spot to occur (Crofton weed): 18.5 ± 1.55 h
2 | CCOC1=C(O)C(C(C)CC)NC1=O (centres unmarked) [Compound 5] | 24.10 uMO2/mgChlh | 0.82 | 52.31 uMO2/mgChlh | – | – | – | – | Avg. diameter of the spot after 24 h (Crofton weed): 2.35 ± 0.14 mm; Time of disease spot to occur (Crofton weed): 20.7 ± 0.75 h
3 | CCC(C)C1NC(=O)C(CCc2ccccc2)=C1O (centres unmarked) [Compound 6] | 27.11 uMO2/mgChlh | 0.81 | 50.04 uMO2/mgChlh | – | – | – | – | Avg. diameter of the spot after 24 h (Crofton weed): 2.12 ± 0.08 mm; Time of disease spot to occur (Crofton weed): 21.2 ± 3.85 h
4 | CCC(C)C1NC(=O)C(NCCCCl)=C1O (centres unmarked) [Compound 8] | 24.65 uMO2/mgChlh | 0.79 | 49.05 uMO2/mgChlh | – | – | – | – | Avg. diameter of the spot after 24 h (Crofton weed): 2.53 ± 0.18 mm; Time of disease spot to occur (Crofton weed): 20.0 ± 1.51 h
5 | CCC(=O)NC1=C(O)C(C(C)CC)NC1=O (centres unmarked) [Compound 9] | 23.33 uMO2/mgChlh | 0.83 | 50.12 uMO2/mgChlh | – | – | – | – | Avg. diameter of the spot after 24 h (Crofton weed): 2.80 ± 0.33 mm; Time of disease spot to occur (Crofton weed): 21.9 ± 2.00 h
6 | CC(=O)C1=C(O)CNC1=O [Compound 10] | 47.55 uMO2/mgChlh | 0.79 | 84.32 uMO2/mgChlh | 29 ± 6.30 h | 1.11 ± 0.16 mm | – | – | –
7 | CC(=O)C1=C(O)C(C)NC1=O (centres unmarked) [Compound 11] | 46.41 uMO2/mgChlh | 0.82 | 80.00 uMO2/mgChlh | 21.5 ± 0 h | 1.80 ± 0.41 mm | – | – | –
8 | CCC1NC(=O)C(C(C)=O)=C1O (centres unmarked) [Compound 12] | 34.54 uMO2/mgChlh | 0.83 | 70.32 uMO2/mgChlh | 15.2 ± 0.35 h | 2.77 ± 0.23 mm | – | – | –
9 | CCCC1NC(=O)C(C(C)=O)=C1O (centres unmarked) [Compound 13] | 41.35 uMO2/mgChlh | 0.85 | 78.19 uMO2/mgChlh | 16.70 ± 0.21 h | 5.21 ± 0.44 mm | – | – | –
10 | CCCCCCCC1NC(=O)C(C(C)=O)=C1O (centres unmarked) [Compound 17] | 27.04 uMO2/mgChlh | 0.82 | 57.13 uMO2/mgChlh | 9.5 ± 2.36 h | 7.94 ± 1.30 mm | – | – | –
11 | CCCCCCCCC1NC(=O)C(C(C)=O)=C1O (centres unmarked) [Compound 18] | 39.98 uMO2/mgChlh | 0.80 | 67.27 uMO2/mgChlh | 12.00 ± 0.48 h | 8.27 ± 0.61 mm | – | – | –
12 | CC(=O)C1=C(O)C(Cc2ccccc2)NC1=O (centres unmarked) [Compound 19] | 40.07 uMO2/mgChlh | 0.79 | 63.43 uMO2/mgChlh | 24 ± 4.00 h | 1.24 ± 0.10 mm | – | – | –
13 | CCCCC1(C)NC(=O)C(C(C)=O)=C1O (centres unmarked) [Compound 29] | – | – | – | 12.1 ± 3.75 h | 5.77 ± 1.15 mm | – | – | –
14 | CCCC(C)C1NC(=O)C(C(C)=O)=C1O (centres unmarked) [Compound 31] | – | – | – | 10.8 ± 2.00 h | 5.93 ± 1.35 mm | – | – | –
15 | CC(=O)C1=C(O)C(CCC(=O)O)NC1=O (centres unmarked) [Compound 35] | – | – | – | 26.4 ± 0.12 h | 1.27 ± 0.02 mm | – | – | –
16 | CC(=O)C1=C(O)C(CC(N)=O)NC1=O (centres unmarked) [Compound 36] | – | – | – | 21.9 ± 0.23 h | 1.54 ± 0.07 mm | – | – | –
17 | CC(=O)C1=C(O)C(CCC(N)=O)NC1=O (centres unmarked) [Compound 37] | – | – | – | 24 ± 0.08 h | 1.64 ± 0.25 mm | – | – | –

Row | Compound | PSII Activity of oxygen evolution (photosystem II) | Fv/Fm [1] | Activity of Hill Reaction (Hill reaction) | Time of Disease spot (Crofton weed) | Average diameter of spot after 24 h (Crofton weed) | Time (Crofton weed) | Average diameter of the damage spot after 24 h (Crofton weed) | other results
18 | CCC(=O)C1=C(O)C(C(C)CC)NC1=O (centres unmarked) [Compound 42] | – | – | – | 19.4 ± 2.50 h | 2.24 ± 0.45 mm | – | – | –
19 | CCC(C)C1NC(=O)C(C(=O)NCc2ccccc2)=C1O (centres unmarked) [Compound 49] | – | – | – | 23.2 ± 2.86 h | 2.47 ± 0.08 mm | – | – | –
20 | CCC1NC(=O)C(C(C)=O)=C1O.[K] (centres unmarked) [f, Potassium salt of 3-acetyl-5-ethyl-4-hydroxy-1H-pyrrol-2(5H)-one] | – | – | – | – | – | 14.2 ± 2.00 h | 3.72 ± 0.28 mm | –
21 | CCCC(C)C1NC(=O)C(C(C)=O)=C1[O-].[Na+] (centres unmarked) [m, Sodium salt of 3-acetyl-4-hydroxy-5-(Pentan-2-yl)-1H-pyrrol-2(5H)-one] | – | – | – | – | – | 8.5 ± 2.00 h | 8.27 ± 1.72 mm | –
22 | Ammonium salt of 3-acetyl-5-ethyl-4-hydroxy-1H-pyrrol-2(5H)-one | – | – | – | – | – | 10.3 ± 1.50 h | 4.97 ± 1.01 mm | –
23 | Calcium salt of 3-acetyl-5-ethyl-4-hydroxy-1H-pyrrol-2(5H)-one [g] | – | – | – | – | – | 18.7 ± 3.00 h | 2.29 ± 0.19 mm | –
24 | Copper salt of 3-acetyl-5-ethyl-4-hydroxy-1H-pyrrol-2(5H)-one | – | – | – | – | – | 21.6 ± 3.05 h | 1.22 ± 0.25 mm | –
25 | Iron salt of 3-acetyl-5-ethyl-4-hydroxy-1H-pyrrol-2(5H)-one [k] | – | – | – | – | – | 17.2 ± 0.95 h | 1.72 ± 0.15 mm | –
26 | Magnesium (II) salt of 3-acetyl-5-ethyl-4-hydroxy-1H-pyrrol-2(5H)-one | – | – | – | – | – | 17.5 ± 1.50 h | 2.88 ± 0.10 mm | –
27 | Manganese salt of 3-acetyl-5-ethyl-4-hydroxy-1H-pyrrol-2(5H)-one [i] | – | – | – | – | – | 14.3 ± 3.15 h | 3.24 ± 0.33 mm | –
28 | Sodium salt of 3-acetyl-4-hydroxy-1H-pyrrol-2(5H)-one | – | – | – | – | – | 26 ± 7.30 h | 1.34 ± 0.08 mm | –
29 | Sodium salt of 3-acetyl-4-hydroxy-5-(prop-1-enyl)-1H-pyrrol-2(5H)-one | – | – | – | – | – | 16.8 ± 1.85 h | 2.42 ± 0.05 mm | –
30 | Sodium salt of 3-acetyl-4-hydroxy-5-methyl-1H-pyrrol-2(5H)-one [b] | – | – | – | – | – | 19.5 ± 0.5 h | 2.21 ± 0.18 mm | –
31 | Sodium salt of 3-acetyl-4-hydroxy-5-propyl-1H-pyrrol-2(5H)-one | – | – | – | – | – | 10.2 ± 2.50 h | 5.07 ± 0.11 mm | –
32 | Sodium salt of 3-acetyl-5-ethyl-4-hydroxy-1H-pyrrol-2(5H)-one | – | – | – | – | – | 14.5 ± 1.8 h | 3.11 ± 0.54 mm | –
33 | Zinc salt of 3-acetyl-4-hydroxy-5,5-dimethyl-1H-pyrrol-2(5H)-one | – | – | – | – | – | 18.2 ± 2.50 h | 2.63 ± 0.06 mm | –
34 | Zinc salt of 3-acetyl-5-ethyl-4-hydroxy-1H-pyrrol-2(5H)-one [j] | – | – | – | – | – | 15.1 ± 4.00 h | 2.91 ± 0.02 mm | –
